11 molecules from ChEMBL document CHEMBL1177696, “Heat shock protein 70 (hsp70) as an emerging drug target” (J Med Chem, 2010) can be followed below.

≈ marks a conversion by molar mass, not a printed value.

In data set [1] the test system is Escherichia coli. As to the kind of experiment: Inhibition of Escherichia coli DNAK at 150 uM.
Data set [2] can be described thus: Inhibition of APIase activity of Escherichia coli MC4100 DNAK.
For data set [3], the system named is Escherichia coli. As to the kind of experiment: Antibacterial activity against Escherichia coli MC4100. It counts as functional.
Data set [4] can be described thus: Binding affinity to Escherichia coli DNAK substrate binding domain by isothermal titration assay. (In general: Isothermal titration calorimetry measures the heat released or taken up as one component is titrated into another.)
Data set [5] deals with Escherichia coli. As to the kind of experiment: Antibacterial activity against Escherichia coli. Format: functional.
For data set [6], the system named is Yersinia pseudotuberculosis. The experiment in a line: Antibacterial activity against Yersinia pseudotuberculosis. Format: functional.
Data set [7] concerns Escherichia coli. The experiment in a line: Ratio of ciprofloxacin MIC to compound MIC for Escherichia coli. It counts as functional.
For data set [8], the target named is Heat shock cognate 71 kDa protein (Homo sapiens) (UniProt P11142). The experiment in a line: Binding affinity to HSC70 EEVD domain by mass spectroscopy.
Sequence of Heat shock cognate 71 kDa protein (Homo sapiens) (P11142 2-646 limits assumed): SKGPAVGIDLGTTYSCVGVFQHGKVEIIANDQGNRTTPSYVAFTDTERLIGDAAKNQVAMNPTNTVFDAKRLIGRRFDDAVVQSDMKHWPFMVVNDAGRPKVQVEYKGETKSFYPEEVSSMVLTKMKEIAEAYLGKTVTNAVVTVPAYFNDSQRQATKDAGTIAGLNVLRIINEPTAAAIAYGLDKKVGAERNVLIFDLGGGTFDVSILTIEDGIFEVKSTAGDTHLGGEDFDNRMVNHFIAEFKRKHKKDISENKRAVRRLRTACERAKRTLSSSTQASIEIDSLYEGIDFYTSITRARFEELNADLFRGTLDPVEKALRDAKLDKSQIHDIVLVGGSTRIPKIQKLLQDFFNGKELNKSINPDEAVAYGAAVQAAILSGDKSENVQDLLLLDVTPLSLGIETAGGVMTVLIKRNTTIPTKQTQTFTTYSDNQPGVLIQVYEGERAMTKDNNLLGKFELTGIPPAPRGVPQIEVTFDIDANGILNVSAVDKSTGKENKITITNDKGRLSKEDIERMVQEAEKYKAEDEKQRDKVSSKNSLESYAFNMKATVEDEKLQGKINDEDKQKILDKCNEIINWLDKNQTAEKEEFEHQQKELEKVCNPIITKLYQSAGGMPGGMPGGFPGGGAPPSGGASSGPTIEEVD
A short description of data set [9]: Binding affinity to HSP90 EEVD domain by mass spectroscopy.
The subject of a further data set is Saccharomyces cerevisiae. The experiment in a line: Induction of ATPase activity of yeast cytosolic HSC70.
A short description of data set [10]: Alpha half life in renal transplant patient. Format: ADME, organism-based. Particulars: human, in vivo; read-out: alphat1/2.
Data set [11] is described as follows: Terminal half life in renal transplant patient. It counts as ADME, organism-based. To be noted: human, in vivo; read-out: beta t1/2 (converted).
For the next data set, the system named is L1210. The experiment in a line: Antitumor activity against mouse L1210 cells xenografted in CDF1 mouse assessed as log reduction in tumor burden. Format: functional.
Data set [12] is described as follows: Cytotoxicity against human erythrocytes assessed as hemolysis after 30 mins by spectrometric analysis. It counts as cell-based. Particulars: Erythrocyte, 0.5 h.
Data set [13] in a line: Inhibition of Escherichia coli DNAK by luciferase-refolding assay.
A short description of data set [14]: Antiproliferative activity against human colon cancer cells. It counts as functional, cell-based. To be noted: Cancer cell lines.
Data set [15] in a line: Antiproliferative activity against human bladder cancer cells. Format: functional, cell-based. Particulars: Cancer cell lines.
Data set [16] in a line: Antiproliferative activity against human breast cancer cells. It counts as functional, cell-based. Particulars: Cancer cell lines.

As usually defined, the inhibition is the percentage by which the read-out fell short of the control. Read a high inhibition as strong suppression. As to `CC1=C(C(=O)OCc2ccccc2)C(c2ccc(C3CCCCC3)cc2)NC(=O)N1CCCCCC(=O)O` (configuration not stated), the inhibition with Escherichia coli [1] is 80%.
For orientation: IC50 means the concentration at which inhibition is half-maximal. Low values mean greater potency in that assay, high ones weaker potency in that assay. The MIC is the smallest concentration in the dilution series that meets the test's criterion for growth inhibition. Read a low MIC as a more susceptible organism. In turn, `CCCCCCCCCCCCCCC(=O)NCc1ccc(C(=O)N[C@H](C(=O)O)[C@@H](C)CC)cc1` yielded an IC50 in data set [2] of 5 µM. In the data set with Escherichia coli [3], this molecule registered an MIC of 380 µg/mL (≈ 778 µM).
Broadly, the Kd is the concentration at which binding is half-saturated. Regarding `O=C(Nc1ccc2[nH]ccc2c1)c1cccs1`, the affinity in data set [4], expressed as Kd, was 12.7 µM. Besides, the MIC (in the data set with Escherichia coli [5]; in [6]) was 10 µM (≈ 2.42 µg/mL) each time.
With `CCCCCCCCCCCCCCCCC(=O)NCc1ccc(C(=O)N[C@H](C(=O)O)[C@@H](C)CC)cc1`, the IC50 in [2] came out at 1.2 µM. This molecule also gave an MIC against Escherichia coli [3] of 180 µg/mL (≈ 348 µM).
As for H-GRPDKPRPYLPRPRPPRPVRI-OH, the Ratio with Escherichia coli [7] came to 4.
In the case of `N=C(N)NCCCCCCC(=O)N[C@@H](O)C(=O)NCCCCNCCCN`, the Activity in data set [8] stood at 5 µM; in data set [9] it was 5 µM; in the data set on Saccharomyces cerevisiae, 20%. In addition, the half-life was 5 min in [10] and 2 h in [11]. Besides, the FC with L1210 is 4.
Usually EC50 stands for the concentration that produces a half-maximal response. Regarding `CCCC/C=C\CCCCCCCCC(=O)NCc1ccc(C(=O)N[C@H](C(=O)O)[C@@H](C)CC)cc1`, in [2], it took 36 µM to reach half-maximal inhibition (IC50). In the data set with Escherichia coli [3], this molecule returned an MIC of 280 µg/mL (≈ 575 µM). Moreover, the EC50 in data set [12] is > 1500 µg/mL.
In turn, `O=C(NCc1ccccc1F)c1cccs1` gave a Kd in [4] of 70 µM. Further, the MIC (against Escherichia coli [5]; in data set [6]) was 10 µM (≈ 2.35 µg/mL) in each case.
Take `Cc1ccc(NC(=O)c2ccc([N+](=O)[O-])o2)cc1`: the MIC in the data set with Escherichia coli [5] is 10 µM (≈ 2.46 µg/mL); in [6], < 12 µM.
In turn, `COC(=O)C1=C(CCc2ccccc2)NC(=O)NC1c1ccc([N+](=O)[O-])cc1` (configuration not stated) registered an EC50 in data set [13] of 4 µM.
With `CCn1c(=O)/c(=C2\Sc3ccccc3N2C)s/c1=C\c1cccc[n+]1CC`, the IC50 in [14], in [15] and in [16] was 1 µM throughout.
